Assay results from patent US20250332293A1, “METHOD FOR MANUFACTURING BIOCOMPATIBLE NANOPARTICLES WITH A PEPTIDE CORE EXHIBITING SECOND- AND THIRD-HARMONIC SIGNAL GENERATION” (MAX-PLANCK-GESELLSCHAFT ZUR FÖRDERUNG DER WISSENSCHAFTEN E. …, priority 2016, published 2025).
Residues, ends and D or L forms follow the SMILES beside them.

Legend:
proteinase K = proteinase K (Parengyodontium album, UniProt P06873); assay: Digestion of self-assembled structures by proteinase K, SHG image time series; assay type: in vitro ADME; settings: no polymer shell, aqueous solution with proteinase K, 0 to 60 minutes
Chain of proteinase K (P06873 106-384): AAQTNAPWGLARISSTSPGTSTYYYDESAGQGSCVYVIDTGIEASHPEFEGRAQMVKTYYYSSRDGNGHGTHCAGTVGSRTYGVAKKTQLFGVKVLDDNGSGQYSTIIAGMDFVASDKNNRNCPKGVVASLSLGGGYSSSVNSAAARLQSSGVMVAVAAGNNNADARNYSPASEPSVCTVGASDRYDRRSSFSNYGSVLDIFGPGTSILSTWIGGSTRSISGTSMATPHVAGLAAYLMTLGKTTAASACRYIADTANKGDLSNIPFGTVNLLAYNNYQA
Description: The digestion 201 is facilitated by a proteinase K.
The proteinase K digests the self-assembled structure into single phenylalanines.
In FIG. 6 the corresponding SHG images of a digestion 201 of self-assembled structures of triphenylalanines 41 suspended in aqueous solution with proteinase K is shown. Here, image A) has been taken at time 0 minutes, image B) at 20 minutes, C) at 40 minutes and image D) after 60 minutes after adding proteinase K to the solution.

[1] = Stability of SHG signal with regard to pH of the solvent; assay type: physicochemical
Description: The disassembly occurs within minutes (˜5 minutes) after incubation in pH 4.
Panel A: SHG signal after incubation of the nanoparticles for 72 hours in a buffer at pH 7. Same as in panel A, but at pH 6. Same as in panel A, but at pH 5. Panel D: same as in panel A, but at pH 4.
In FIG. 16a, the effect of different pH values on the SHG signal intensity are shown as a diagram. The nanoparticles were incubated at different pH values for 72 hours (n=5). Representative images showing SHG signal intensity after the nanoparticles were incubated in buffers at FIG. 16b, pH 7, FIG. 16c, pH 6, FIG. 16d, pH 5, and FIG. 16e, pH 4. Scalebar, 10 μm. Mean±s.d. n.s., not significant (Ordinary one-way ANOVA with Tukey's multiple comparisons).

[2] = Stability of SHG signal with regard to dilution; assay type: physicochemical; settings: 10 mg/ml (versus 100 mg/ml)
Description: Panel A: LIVAGK peptides' SHG signal at a concentration of 100 mg/ml. Panel B: LIVAGK peptides' SHG signal at a concentration of 10 mg/ml.

| Compound | SHG signal during proteinase K digestion (proteinase K) | assembly state / SHG signal at pH 4 ([1]; pH 4, 100 mg/ml) | time to disassembly after incubation in pH 4 ([1]; pH 4, 100 mg/ml) [minutes] | assembly state / SHG signal at pH 7 ([1]; pH 7, 100 mg/ml) | SHG signal on dilution [2] |
| --- | --- | --- | --- | --- | --- |
| N[C@@H](Cc1ccccc1)C(=O)N[C@@H](Cc1ccccc1)C(=O)N[C@@H](Cc1ccccc1)C(=O)O [triphenylalanine, Phe-Phe-Phe] (H-Phe-Phe-Phe-OH; N-terminus and C-terminus assumed) | decreasing over the course of time |  |  |  |  |
| LIVAGK |  | disassemble | ~5 | still assembled | no SHG signal can be observed |
